Measured values published in BindingDB's records for doi:10.1021/acs.jmedchem.1c01452 (Zhengzhou University, 2021).

Columns and labels:
[1] = Inhibition of ABCB1 (unknown origin) expressed in HEK293T cells assessed as reduction in colchicine IC50 at 0.5 uM pre-incubated for 4 hrs followed by colchicine addition and measured after 72 hrs by MTT assay
[2] = Inhibition of ABCB1 (unknown origin) expressed in HEK293T cells assessed as reduction in paclitaxel IC50 at 2 uM pre-incubated for 4 hrs followed by paclitaxel addition and measured after 72 hrs by MTT assay
[3] = Inhibition of ABCB1 (unknown origin) expressed in HEK293T cells assessed as reduction in colchicine IC50 at 1 uM pre-incubated for 4 hrs followed by colchicine addition and measured after 72 hrs by MTT assay
[4] = Inhibition of ABCB1 (unknown origin) expressed in HEK293T cells assessed as reduction in paclitaxel IC50 at 0.5 uM pre-incubated for 4 hrs followed by paclitaxel addition and measured after 72 hrs by MTT assay
[5] = Inhibition of ABCB1 (unknown origin) expressed in HEK293T cells assessed as reduction in colchicine IC50 at 2 uM pre-incubated for 4 hrs followed by colchicine addition and measured after 72 hrs by MTT assay
[6] = Inhibition of ABCB1 (unknown origin) expressed in HEK293T cells assessed as reduction in paclitaxel IC50 at 1 uM pre-incubated for 4 hrs followed by paclitaxel addition and measured after 72 hrs by MTT assay

Work on `COc1cc2ncnc(-c3c(-c4ccccc4)n(Cc4ccccc4Br)c4ccccc34)c2cc1OCCCN1CCOCC1` yielded an IC50 [1] of 321 µM, an IC50 [2] of 3.6 µM and an IC50 [3] of 101 µM. It also gave an IC50 [4] of 30.5 µM, an IC50 [5] of 22.2 µM and an IC50 [6] of 12.2 µM.
